Measurements: US12043602B2, “Fendiline derivatives” (The Board of Regents of the University of Texas System, priority 2019, dated 2024)

Experiments:
BxPC-3 tumors = assay: In vivo tumor growth assay (xenograft); design: species or system nu/nu mice; conditions: 12.5 mg/kg intraperitoneally
Procedure: FIG. 4. Inhibition of tumor growth in vivo by fendiline. Nu/nu mice implanted with BxPC-3 or MIAPaCa-2 tumors were treated with vehicle (DMSO) or fendiline (12.5 mg/kg) intraperitoneally and tumor sizes were measured with an external caliper every 3-4 days. Time and fendiline treatment affected MiaPaCa2 xenograft growth (2-way ANOVA, p=0.027).
Early passage BxPC-3 or MIAPaCa-2 cells were harvested, and 2-3X106 cells were implanted into the right flanks of nu/nu mice. The animals were randomized into control and treated groups (10 mice per group). Tumor volume (V) was measured with an external caliper every 3-4 days and it was calculated as V=0.52 (length×width2). Drug treatment was initiated 4 days after tumor implantation. Drugs were injected daily intraperitoneally (at doses indicated) for 5 days, with 2 days of no treatment in between. All treatments were continued until any of the subcutaneous tumors reached 1500 mm3 in volume or for 6 weeks (whichever was first), when all the animals were sacrificed and the tumors removed.

SMPD1-GFP (ASM) = SMPD1-GFP (ASM) (Homo sapiens (Human), UniProt P17405); assay: Western blot of SMPD1-GFP levels; assay type: cell-based; conditions: 5 μM compounds for 48 h
Procedure: (§1) FIG. 6A-C. (A) Dose response curves quantifying the extent of KRASG12V and LactC2 mislocalization after 48 h treatment with compounds. Mislocalization was quantified using Manders coefficients as the fraction of mCherry-CAAX co-localizing with mGFP-KRASG12V or GFP-LactC2. (B) ASM activity in cell stably expressing GFP-tagged SMPD1 treated with DMSO or 5 μM compound for 48 h. (C) Representative western blots and quantitation of SMPD1-GFP levels in cells treated with 5 μM compounds for 48 h. (D) Representative confocal images of MDCK cells stably co-expressing mGFP-KRASG12V and mCherry-CAAX treated with 10 μM compound 6 or 1 μM of compounds 12f (NY0244), 12h (NY0331) or 22 (NY0335) for 48 h (-ASM), then incubated with recombinant ASM in the continued presence of drugs for a further 60 min (+ASM). Mislocalization was quantified using Manders coefficients as the fraction of mCherry-CAAX co-localizing with mGFP-KRASG12V.
Western Blotting. […] Signals were detected by enhanced chemiluminescence (Thermo Fisher Scientific) and imaged using a FluorChemQ imager (Alpha Inotech). Quantification of intensities was performed using FluorChemQ software.

human ASM (SMPD1)-GFP = human ASM (SMPD1)-GFP (Homo sapiens (Human), UniProt P17405); assay: ASM activity assay (Amplex Red SMase kit, lysates of treated cells); assay type: cell-based; conditions: 5 μM compound for 48 h
Procedure: as §1
ASM Activity Assay. The ASM activity assay was performed with Amplex Red SMase Assay Kit (A12220; Invitrogen; Carlsbad, CA) according to the manufacturer's instructions. […] The plate was further incubated in the dark in 37° C. for 60 min, and the fluorescence was measured using BioTek Synergy H1 microplate reader (excitation λ=540 nm, emission λ=590 nm). […]

cleaved caspase 3 (CC3) = assay: Immunohistochemistry of tumor sections, cleaved caspase 3; design: species or system nu/nu mice; conditions: mouse, in vivo
Procedure: Immunohistochemistry. 4-5 μm sections were deparaffinized, rehydrated, and treated with 10 mM sodium citrate for heat induced antigen retrieval. After quenching endogenous peroxidase, and blocking with 2.5% normal goat serum (Vector Laboratories S-1012), sections were incubated overnight at 4° C. with primary antibody diluted in blocking solution as recommended by manufacturer (Cell Signaling). Controls were incubated with diluted normal rabbit IgG. After incubation with biotinylated secondary antibody diluted 1:250 in blocking serum for 45 min at rt, sections were incubated with VECTASTAIN ABC reagent for 30 min, and for development of the DAB chromogen the Quanto substrate was used. Slides were counter stained with Hematoxylin. Five fields per stained section per xenograft were photographed at 10X. CC3+ and pERK+ area and number of events per field were quantitated via automated image analysis (NIS Elements BR analysis ver. 4.13.04). Vessel number and lumen area per field used the same software with manual settings to trace vessel wall contours. Antibodies used are as follows: CC3: Cell Signaling #9661, use at 1:300. […]

[1] = test system: MAPK pathway inhibitors such as trametinib; assay: Combination with MAPK pathway inhibitors; conditions: preliminary findings

Sequence of human ASM (SMPD1)-GFP (P17405 47-631): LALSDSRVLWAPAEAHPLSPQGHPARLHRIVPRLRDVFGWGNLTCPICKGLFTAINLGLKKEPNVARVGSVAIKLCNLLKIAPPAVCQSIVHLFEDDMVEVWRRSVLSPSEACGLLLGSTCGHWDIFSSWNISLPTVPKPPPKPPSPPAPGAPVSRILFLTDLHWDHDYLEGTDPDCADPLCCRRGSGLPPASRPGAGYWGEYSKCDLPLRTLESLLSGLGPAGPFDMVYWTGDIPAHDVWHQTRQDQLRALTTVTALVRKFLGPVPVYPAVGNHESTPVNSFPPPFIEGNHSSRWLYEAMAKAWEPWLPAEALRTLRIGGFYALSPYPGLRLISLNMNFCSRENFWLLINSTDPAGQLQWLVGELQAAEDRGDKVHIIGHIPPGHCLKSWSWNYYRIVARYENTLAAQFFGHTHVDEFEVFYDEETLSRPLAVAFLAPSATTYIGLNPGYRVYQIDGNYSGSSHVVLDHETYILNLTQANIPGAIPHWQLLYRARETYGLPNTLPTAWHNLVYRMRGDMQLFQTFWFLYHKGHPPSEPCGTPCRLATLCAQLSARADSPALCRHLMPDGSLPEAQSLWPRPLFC

## CC(NCCC(c1ccccc1)c1ccccc1)c1ccccc1 (stereo not shown) [Fendiline]
BxPC-3 tumors
  BxPC-3 xenograft growth: No significant effects

## COc1ccc([C@@H](C)N(CC=C(c2ccccc2)c2ccccc2)CCN2CCN(C)CC2)cc1 [NY0244, (R)-N-(1-(4-methoxyphenyl)ethyl)-N-(2-(4-methylpiperazin-1-yl)ethyl)-3,3-diphenylprop-2-en-1-amine]
SMPD1-GFP (ASM)
  cellular levels of ASM (SMPD1-GFP): reduced the levels of ASM

## COc1ccc([C@@H](C)N(CC=C(c2ccccc2)c2ccccc2)CCN2CCCC2)cc1 [NY0331, (R)-N-(1-(4-methoxyphenyl)ethyl)-3,3-diphenyl-N-(2-(pyrrolidin-1-yl)ethyl)prop-2-en-1-amine]
Human ASM (SMPD1)-GFP
  inhibition of ASM: most potent
SMPD1-GFP (ASM)
  cellular levels of ASM (SMPD1-GFP): reduced the levels of ASM
Cleaved caspase 3 (CC3)
  cleaved caspase 3 (CC3) in tumors: increased
[1]
  synergy with MAPK pathway inhibitors: synergizes

## COc1ccc([C@@H](C)N(CC=C(c2ccccc2)c2ccccc2)CCCN2CCN(C)CC2)cc1 [NY0335, (R)-N-(1-(4-methoxyphenyl)ethyl)-N-(3-(4-methylpiperazin-1-yl)propyl)-3,3-diphenylprop-2-en-1-amine]
Cleaved caspase 3 (CC3)
  cleaved caspase 3 (CC3) in tumors: increased
